{"source": "paper PMC7719179", "about": "“Small molecule inhibition of Dynamin-dependent endocytosis targets multiple niche signals and impairs leukemia stem cells” (Nature Communications, 2020)", "key": {"DN3a thymocytes": {"tested_on": "DN3a thymocytes", "test": "Relative viability and LC50 on DN3a thymocytes of WT, Lmo2^Tg, Lmo2^Tg;STAT5-CA^Tg and Lmo2^Tg;N1-ICD^Tg mice, 48 h", "details": "Lmo2Tg;STAT5-CATg", "protocol": "Pre-leukemic and leukemic thymocytes were purified by flow cytometry and co-cultured on GFP-positive OP9 and OP9-DL1 stromal cell lines, as described previously. Thymocytes were co-cultured in reconstituted alpha-MEM medium (#12318, Gibco, Grand Island NY, USA) supplemented with 20% FCS (#12318), HEPES 10 mM (#15630-080), sodium pyruvate 1 mM (#11360-070), β-mercaptoethanol 55 μM (#21985-023), Glutamax 2 mM (#15750-060), 1% Penicillin/Streptomycin (#15140-122), 5 ng/mL rmFLT-3 ligand (#250-31 L, Pepro Tech), 5 ng/mL rmIL-7 (#217-17, Pepro Tech) and 25 ng/mL rmSCF (#250-03, Pepro Tech). After 48 h of co-culture, thymocytes were counted and analysed by FACS. […]\nviability of wild-type (WT), Lmo2 Tg, Lmo2Tg;STAT5-CA Tg and Lmo2Tg;N1-ICD Tg DN3a thymocytes […]\nnormalized to cells treated with vehicle (%DMSO). Mean ± SEM of n=4 biological replicates. b, […]\nthymocytes from 6-week old wild-type (WT), Lmo2 Tg, Lmo2Tg;STAT5-CATg and Lmo2Tg ;N1-ICD Tg mice. Mean ± SD of n=4 biological replicates are shown. 2-way ANOVA with Tukey’s correction test; […]\n(1 picture or pasted object on this page, not shown here)\n*P<0.05, *** P<0.001 compared to WT; #P<0.05, ##P<0.01, ###P<0.001 compared to L mo2Tg. c, Levels of pStat5 (left) after stimulation with IL-7 , as well as Hes1 expression (right) after co-culture on OP9- […]\n(0.2 µM), Ruxolitinib (0.2 µM) and DAPT (0.1 µM). Unstimulated cells were used as negative controls (dashed line). Student’s t -test, ** P<0.01, *** P<0.001 compared to unstimulated cells. MFI ± SEM, 1-way ANOVA with Tukey’s correction test; **P<0.01, *** P<0.001 compared to vehicle. d, Clonogenic assay of normal murine hematopoietic stem and progenitor cells (HSPCs) cultured in the presence […]\n± SD, Student’s t -test ( n=4) **P<0.01 compared to vehicle. e, Relative viability of wild-type (WT), […]\n2 (0.2 µM), Ruxolitinib (0.2 µM) and DAPT (0.1 µM) for 48 hours. Viability was normalized to cells treated with vehicle (%DMSO, which was reported as 100). Mean ± SEM, 2-way ANOVA with Tukey’s correction test, **P<0.01, *** P<0.001 compared to vehicle."}, "[1]": {"tested_on": "Ba/F3-IL7R^Stat5-CA cells", "test": "Cytotoxic activity in IL-7-dependent and IL-7-independent Ba/F3-IL7R^Stat5-CA cells", "type": "cell-based, murine", "details": "for Survival (%) over survival at day 0, reported as 100%: Ba/F3-IL7R^Stat5-CA cells, dose = IC50 or LC50 of each drug", "from_the_text": "The doxycycline-inducible dual-colour TRMPVIR (TRE-dsRed-miR30/shRNA-PGK-Venus-IRES-rtTA3) retroviral vector[84] was kindly given by R. A. Dickins and was modified by replacing the dsRed-miR30/shRNA sequence by a T2A self-cleaving peptide[85] fusioned with the mCherry fluorescent protein (from TRIPZ, Addgene) inserted into the BamHI and EcoRI sites of the plasmid downstream of the TRE promoter to generate the TxTCPVIR (TRE-gene-T2A-mCherry-PGK-Venus-IRES-rtTA3) retroviral vector. Using standard cloning techniques, we inserted the full-length sequence of Stat5-CA from the pMig-R1 construct into the TxTCPVIR vector to generate the TxTCPVIR-Stat5-CA construct. All subcloned constructs were verified by DNA sequencing (Micromon, Monash University, Australia). Detailed cloning strategies, primers sequences and vectors are available on request.\n(§1) Ba/F3 cells (kindly provided by a person from The Walter and Eliza Hall Institute of Medical Research) were infected with pMIG-R1/Il7r retroviral supernatants produced in 293T cells, and transduced cells were sorted with a BD Influx (BD Australia) and selected by culture in medium supplemented with 5 ng/mL rmIL-7 (#217-17, Pepro Tech, Rocky Hill NJ, USA) for 7 days. Ba/F3 cells stably expressing Il7r (Ba/F3-IL7R) were infected with TxTCPVIR-Stat5-CA retroviral supernatants produced in 293T. Cell sorting was performed with a BD Influx and transduced cells were treated with doxycycline for 48 h to induce the expression of the Stat5-CA-T2A-mCherry fusion protein.\nFlow cytometry analyses were performed as previously described[10],[86] on single-cell suspensions stained using BD Pharmingen antibodies (BD Australia, North Ryde NSW, Australia) against mouse CD4 (RM4-5), CD8 (53-6.7), CD25 (PC61.5), CD44 (IM7), CD45.1 (A20), CD45.2 (104), Thy1.2 (53-2.1; #561616), TCRβ (H57-597), CD117 (ACK45), CD135 (A2F10.1), CD150 (TC15-12F12.2; #562373), B220 (RA3-6B2; #563708), CD3 (145-2C11; #563004), CD19 (ID3; #557655), Gr-1 (RB6-8C5; #563299 and #565033), CD11b (M1/70; #563015 and #560455), Ter119 (Ter119; #565523 and #557909), Sca-1 (D7; #558160) and an eBioscience antibody (eBioscience, Invitrogen) against mouse NOTCH1 (22E5). DN3 populations and IL-7R were stained using BioLegend antibodies (Australian Biosearch, Balcatta WA, Australia) against mouse CD28 (E18) and CD127 (A7R34), respectively. Apoptosis was measured using an antibody against AnnexinV (#556420, BD Australia) and the […] Sytox Blue (BD Australia) following the manufacturer’s protocol."}, "[2]": {"tested_on": "Ba/F3-IL7R^Stat5-CA cells", "test": "pStat5 and proliferation of Ba/F3-IL7R^Stat5-CA cells with IL-7 or doxycycline", "type": "cell-based, murine", "details": "relative to data from day 0, reported as 1, groups +IL-7 -DOX or -IL-7 +DOX", "protocol": "as §1, with “protein. […]” for “protein.”\n(red) assessed by flow cytometry (top) and Western blots (bottom). MFI ± SD of n=2 technical replicates, performed in 2 independent experiments (***P<0.001 compared to unstimulated cells ; white bar). For Western blots, Actin was used as a loading control. f, Proliferation of BaF3-IL7R Stat5-CA cells in absence (+IL-7 –DOX; grey) or presence (-IL-7 +DOX; red) of doxycycline. Fold expansion was calculated from the number of cells initially put into culture at day 0. […]"}, "[3]": {"tested_on": "IL-7 signalling (pStat5) in Ba/F3-IL7R cells", "test": "IL-7-induced phospho-Stat5 in Ba/F3-IL7R cells (phosphoflow)", "type": "cell-based, murine", "details": "Ba/F3-IL7R cells; result in words", "protocol": "as §1\nPhosphoflow analysis was performed as previously described. Briefly, 2 × 10^6 cells stained for surface markers were subsequently resuspended into PBS 1× + 4% v/v paraformaldehyde and incubated for 10 min at 4 °C for fixation. Fixed cells were washed twice using PBS 1×, then resuspended in pre-chilled at −20 °C Perm Buffer III (BD Pharmingen) and incubated 30 min at 4 °C for permeabilization. Cells were washed twice using PBS 1× and incubated overnight at 4 °C in PBS 1× + 2% v/v fetal calf serum (FCS) with Cell Signalling purified antibodies (Genesearch Pty Ltd, Arundel QLD, Australia) against pSTAT5 (Tyr694; #9359), phospho-p38 MAPK (Thr180/Tyr182; #4511), phospho-p44/42 (Erk1/2; #9102), phospho-S6 (Ser235/236; #4856) and phospho-Akt (Ser473; #9271) or isotype control. For intracellular HES1 detection, cells stained for surface markers were subsequently fixed and permeabilized using the BD Cytofix/Cytoperm^TM Kit and incubated overnight at 4 °C in PBS 1× + 2% v/v FCS with a purified antibody against HES1 (D6PU; #11988, Cell Signalling) or isotype control. After staining with primary antibodies for phosphoflow or intracellular detection, cells were incubated in permeabilization buffer with donkey Alexa Fluor 488-conjugated anti-rabbit secondary antibody (A-21206, lot #1910751, Molecular Probes, Invitrogen) or goat Alexa Fluor 546-conjugated anti-rabbit secondary antibody (A-11035, lot #1904467, Molecular Probes, Invitrogen) for 1 h on ice, and washed twice in PBS 1×. Fluorescence-activated cell sorting (FACS) analysis was performed using LSRII and LSR Fortessa cytometers, following the gating strategies described in Supplementary Fig. 11. Cell sorting was performed with a FACSAria or BD Influx.\nFor in vitro IL-7 stimulation assays, cells were starved in serum-free DMEM at 37 °C, then incubated with either vehicle or Dynole 34-2 or Ruxolitinib (INCB018424; #S1378, Selleckchem), or DAPT (GSI-IX; #S2215, Selleckchem) resuspended in DMSO for 1 h. Thymocytes were subsequently stimulated with 25 ng/mL IL-7 at 37 °C for 20 min and washed twice using cold PBS 1×. Cells were incubated with 25 ng/mL Rat IgG (Sigma-Aldrich Pty Ltd, Castle Hill NSW, Australia) and with a PE-conjugated antibody for detection of IL-7R (CD127) for 1 h on ice, as described in the FACS analysis section. PE-conjugated isotype was used as negative control. Cells were washed twice, fixed and phosphoflow analysis performed as described in the FACS analysis section. The analysis was performed in triplicate and the mean fluorescence intensity (MFI) observed without stimulation was reported as 100%."}}, "note": "Values joined by “and” are separate entries in the source; they are usually repeats but may differ in a detail not shown here. Equal values may be shown once."}
{"compound": "CCCCCCCCNC(=O)/C(C#N)=C/c1cn(CCCN(C)C)c2ccccc12", "note": "[Dynole 34]", "values": [{"measurement": "Survival (% DMSO)", "setting": "DN3a thymocytes", "value": "50.05 % DMSO and 55.36 % DMSO and 37.5 % DMSO and 40.03 % DMSO"}]}
{"compound": "CC[C@]1(O)C[C@H]2CN(CCc3c([nH]c4ccccc34)[C@@](C(=O)OC)(c3cc4c(cc3OC)N(C=O)[C@H]3[C@@](O)(C(=O)OC)[C@H](OC(C)=O)[C@]5(CC)C=CCN6CC[C@]43[C@@H]65)C2)C1", "note": "[Vincristine]", "values": [{"measurement": "Survival (%) over survival at day 0, reported as 100%", "setting": "[1]; +IL-7 -DOX, 0 h", "value": "100.02% and 100.26% and 100.28% and 99.72% and 99.53% and 100.47%"}, {"measurement": "Survival (%) over survival at day 0, reported as 100%", "setting": "[1]; +IL-7 -DOX, 24 h", "value": "97.78% and 97.03% and 92.76% and 93.67% and 88.90% and 79.18%"}, {"measurement": "Survival (%) over survival at day 0, reported as 100%", "setting": "[1]; +IL-7 -DOX, 48 h", "value": "60.76% and 61.24% and 44.94% and 67.20% and 75.05% and 65.49%"}, {"measurement": "Survival (%) over survival at day 0, reported as 100%", "setting": "[1]; +IL-7 -DOX, 72 h", "value": "42.05% and 38.67% and 50.69% and 46.55% and 54.10% and 54.58%"}, {"measurement": "Survival (%) over survival at day 0, reported as 100%", "setting": "[1]; +IL-7 -DOX, 96 h", "value": "9.57% and 5.19% and 6.30%"}, {"measurement": "Survival (%) over survival at day 0, reported as 100%", "setting": "[1]; -IL-7 +DOX, 0 h", "value": "100.62% and 100.47% and 99.53% and 102.59% and 99.98% and 100.02%"}, {"measurement": "Survival (%) over survival at day 0, reported as 100%", "setting": "[1]; -IL-7 +DOX, 24 h", "value": "84.77% and 83.72% and 89.11% and 91.00% and 83.57% and 82.00%"}, {"measurement": "Survival (%) over survival at day 0, reported as 100%", "setting": "[1]; -IL-7 +DOX, 48 h", "value": "82.10% and 78.50% and 82.90% and 69.10% and 67.20% and 82.60%"}, {"measurement": "Survival (%) over survival at day 0, reported as 100%", "setting": "[1]; -IL-7 +DOX, 72 h", "value": "60.60% and 57.90% and 64.60% and 57.00% and 62.20% and 65.20%"}, {"measurement": "Survival (%) over survival at day 0, reported as 100%", "setting": "[1]; -IL-7 +DOX, 120 h", "value": "34.10% and 40.50% and 30.80% and 32.50% and 34.90% and 26.60%"}, {"measurement": "sensitivity of Ba/F3-IL7R^Stat5-CA cells with constitutive pStat5 (doxycycline)", "setting": "[1]; result in words", "value": "equally effective"}]}
{"compound": "IL-7", "values": [{"measurement": "Fold expansion", "setting": "[2]; 24 h", "value": "0.74 and 0.75 and 0.79 and 0.97 and 0.91 and 0.98"}, {"measurement": "Fold expansion", "setting": "[2]; 72 h", "value": "2.37 and 2.58 and 4.20 and 3.96 and 3.95 and 3.51"}, {"measurement": "Fold expansion", "setting": "[2]; 120 h", "value": "9.32 and 11.24 and 15.76 and 15.48 and 14.68 and 15.08"}]}
{"compound": "O=C(N/N=C/c1ccc(O)c(O)c1)c1cc2ccccc2cc1O", "note": "[Dynasore, reference compound]", "values": [{"measurement": "inhibition of IL-7 signalling as measured by loss of phospho-Stat5", "setting": "[3]", "value": "dose-dependent inhibition"}]}
{"compound": "O=C(NN=Cc1cc(O)c(O)cc1O)c1cc2ccccc2cc1O", "note": "[Dyngo 4a, 3-Hydroxy-N’-[(2,4,5-trihydroxyphenyl)-methylidene]-naphthalene-2-carbohydrazide, reference compound]", "values": [{"measurement": "inhibition of IL-7 signalling as measured by loss of phospho-Stat5", "setting": "[3]", "value": "dose-dependent inhibition"}]}
